The source of these data is patent US20090325952A1, “PYRAZOLO[3,4-B]PYRIDINE COMPOUNDS, AND THEIR USE AS PDE4 INHIBITORS” (Glaxo Group Limited, priority 2006, published 2009).

Structures can show the parent of a compound that is named as a salt.

The test system of test [1] is LPS-induced pulmonary neutrophilia in rats. Nature of the test: In Vivo Assay 1: LPS induced pulmonary neutrophilia in rats, intratracheal administration. To be noted: rats; for mean inhibition of LPS-induced pulmonary neutrophilia: i.t. aqueous solution, about 2 hours prior to LPS; for estimated ED50 for inhibition of LPS-induced pulmonary neutrophilia: i.t., micronised, aqueous solution in 0.2% Tween 80 in PBS, about 2 hours prior to LPS challenge. Also on record: species or system rat. An excerpt: This assay is an animal model of acute inflammation in the lung—specifically neutrophilia induced by lipopolysaccharide (LPS)—and allows the study of putative inhibition of such neutrophilia (anti-inflammatory effect) by an intratracheally (i.t.) administered PDE4 inhibitor (“drug”). The PDE4 inhibitors are suitably in dry powder, aqueous solution or aqueous suspension form. I.t. administration is one model of inhaled administration, allowing topical delivery to the lung.
Animals: Male CD (Sprague Dawley Derived) rats supplied by Charles River, United Kingdom are housed in groups of 5 rats per cage, acclimatised after delivery for at least 7 days with bedding/nesting material regularly changed, fed on SDS diet R1 pelleted food given ad lib, and supplied with daily-changed pasteurised animal grade drinking water.
Device for dry powder administration: For these studies, a Penn Century DP-4 dry powder intratracheal (i.t.) delivery device (insufflator) is used for administration of a dry powder blend of vehicle (inhalation grade lactose) and the PDE4 inhibitor compound or salt of the invention (“drug”). Each device is numbered and the sample loading chamber is unscrewed from the main device and weighed. The i.t. delivery needle is also weighed. The drug+lactose blend or inhalation grade lactose (vehicle control) is then added to the sample chamber and this is then re-weighed. The sample chamber is fitted back on to the main device to prevent any drug being lost. This procedure is repeated for all of the Penn century devices to be used in the study (one separate device for each animal). After dosing to the animals, the sample chambers and needles are re-weighed in order to determine the amount of sample that was expelled from the device.
Device for aqueous solution administration: A blunt dosing needle, whose forward end is slightly angled to the needle axis, is used, with a flexible plastic portex canula inserted into the needle. The portex cannula is inserted into the lumen of the blunt stainless steel dosing needle and this is carefully inserted into the back of the animal's throat and into the trachea via the larynx. A known volume (200 microlitres) of the vehicle (0.2% Tween 80™ in saline) or of the solution (or suspension) drug composition is administered into the trachea using a plastic syringe that is attached to the portex cannula and dosing needle. A new internal cannula is used for each different drug group. After dosing, the needle is removed from the trachea and the animals are removed from the table and continually observed until they recover from the effects of anaesthesia. The animals are then returned to the holding cages and given free access to food and water, and are observed and any unusual behavioural changes noted. (Aqueous suspensions can be handled generally similarly.)
Drugs and Materials: Lipopolysaccharide (LPS) (Serotype:0127:B8, e.g. from Sigma, UK; e.g. L3129 prepared by phenol extraction) is dissolved in phosphate-buffered saline (PBS).
For dry powder, aqueous solution or aqueous suspension administration, PDE4 inhibitors are preferably used in size-reduced (e.g. micronised) form, for example according to the Micronisation Example(s) disclosed herein.
For dry powder administration of the drug, the PDE4 inhibitor compound or salt of the invention (drug) is administered as a dry powder blended with inhalation-grade (respiratory-grade) lactose, i.e. as a dry powder composition. The target quantity of dry powder composition administered i.t. to each animal is 2 mg. This remains constant throughout the studies. To achieve different doses, blends of the drug dry powder and lactose, containing different concentrations of the PDE4 inhibitor compound or salt of the invention (drug), are prepared. […]

Test [2] addresses PDE5 (human recombinant) (Homo sapiens, UniProt O76074). Briefly: Inhibition of PDE5 activity (FP or SPA assays). Format: biochemical. The following applies: selectivity PDE4B over PDE5. The source says:
Human recombinant PDE5 is disclosed in K. Loughney et al., “Isolation and characterisation of cDNAs encoding PDE5A, a human cGMP-binding, cGMP-specific 3′,5′-cyclic nucleotide phosphodiesterase”, Gene, 1998, 216, 139-147.
(§1) The ability of compounds to inhibit catalytic activity at PDE4B or 4D (human recombinant), PDE3 (from bovine aorta), PDE5 (human recombinant) or PDE6 (from bovine retina) can optionally be determined by Scintillation Proximity Assay (SPA) in a 96-well format.
(§2) Test compounds (as a solution in DMSO, suitably about 2 microlitre (ul) volume of DMSO solution) are preincubated at ambient temperature (room temperature, e.g. 19-23° C.) in Wallac Isoplates (code 1450-514) with PDE enzyme in 50 mM Tris-HCl buffer pH 7.5, 8.3 mM MgCl2, 1.7 mM EGTA, 0.05% (w/v) bovine serum albumin for 10-30 minutes (usually 30 minutes). The enzyme concentration is adjusted so that no more than 20% hydrolysis of the substrate defined below occurs in control wells without compound, during the incubation. […] Bound radioactive product is measured using a WALLAC TRILUX 1450 Microbeta scintillation counter. […] Curves are analysed using ActivityBase and XLfit (ID Business Solutions Limited, 2 Ocean Court, Surrey Research Park, Guildford, Surrey GU2 7QB, United Kingdom) Results are expressed as pIC50 values. […]

For test [3], the system named is PDE3 (from bovine aorta). Nature of the test: Inhibition of PDE3 activity (FP or SPA assays). The format is biochemical. To be noted: selectivity PDE4B over PDE3.
Text: PDE3 can be purified from bovine aorta as described by H. Coste and P. Grondin, “Characterisation of a novel potent and specific inhibitor of type V phosphodiesterase”, Biochem. Pharmacol., 1995, 50, 1577-1585.
as §1, §2

On to `CCc1nc2c(cnn2CC)c(NC2CCOCC2)c1CNC(=O)c1ccc(NC(=O)CCCCCCCN(C)CCO)cc1` [Example 1A1, N-{[1,6-Diethyl-4-(tetrahydro-2H-pyran-4-ylamino)-1H-pyrazolo[3,4-b]pyridin-5-yl]methyl}-4-({8-[(2-hydroxyethyl)(methyl)amino]octanoyl}amino)benzamide dihydrochloride], for which the “mean inhibition of LPS-induced pulmonary neutrophilia” value in test [1] (about 10 micrograms/kg, dihydrochloride) is on record as “about 33%”; in test [1] (about 30 micrograms/kg, dihydrochloride), “about 56%”; in test [1] (about 100 micrograms/kg, dihydrochloride), “about 76%”; in test [1] (about 300 micrograms/kg), “about 74%”. Besides, the “estimated ED50 for inhibition of LPS-induced pulmonary neutrophilia” value in test [1] (dihydrochloride) is recorded as “approximately 12.3 micrograms/kg body weight”.
As for `CCc1nc2c(cnn2CC)c(NC2CCOCC2)c1CNC(=O)c1ccc(NC(=O)CCCCCCCN(C)CCO)cc1` [Example 1B, N-{[1,6-diethyl-4-(tetrahydro-2H-pyran-4-ylamino)-1H-pyrazolo[3,4-b]pyridin-5-yl]methyl}-4-({8-[(2-hydroxyethyl)(methyl)amino]octanoyl}amino)benzamide], in test [2], the “PDE4B inhibition compared with PDE5 inhibition (pIC50 values)” value was “inhibit PDE4B more strongly than they inhibit PDE3, PDE5 and PDE6”. In addition, the “PDE4B inhibition compared with PDE3 inhibition (pIC50 values)” value in test [3] is “inhibit PDE4B more strongly than they inhibit PDE3, PDE5 and PDE6”. Moreover, the figures for the “mean inhibition of LPS-induced pulmonary neutrophilia” value in test [1] (about 10 micrograms/kg), in test [1] (about 30 micrograms/kg) and in test [1] (about 100 micrograms/kg) were “about 29%”, “about 75%” and “about 59%”, respectively. For the same molecule, the “estimated ED50 for inhibition of LPS-induced pulmonary neutrophilia” value in test [1] is given as “approximately 10.1 micrograms/kg body weight”.
